Laboratory results taken from PubChem BioAssay AID743175 (Broad Institute, 2013).
The source made the active and inactive calls. How the calls were made is not given here.

Key:
[1] = tested on: Mycobacterium tuberculosis non-replicating, growth inhibition plate reader; assay: inhibitor activity on non-replicating M. tuberculosis, dose response, plate reader, dry powder (AID 743175)
[2] = as above; conditions: Mycobacterium tuberculosis non-replicating, growth inhibition plate reader

Structure (SMILES) | AC90 [1] | activity change, negative = inhibition ([2]; at 26 µM (top of the series)) | also measured
O=C(Nc1nc2ccccc2[nH]1)c1cccc(Cl)c1 | 11.4 µM |  | 
CCc1ccc(OCCCC(=O)NCc2ccco2)cc1 | > 38 µM (inactive) |  | 
Cc1cccc(C)c1N1C(=O)CC(N2CCSCC2)C1=O (centres undefined) | 5.72 µM |  | 
CCOC(=O)COc1ccc2c(=O)c(-c3ccccc3)coc2c1 | > 38 µM (inactive) |  | 
CCOC(=O)COc1ccc(C(=O)NC2CCCCC2)cc1 | > 38 µM (inactive) |  | 
CCOC(=O)c1sc(NC(=O)CCN2CCOCC2)c(C(=O)OCC)c1C | > 38 µM (inactive) |  | 
COC(=O)COc1ccc2c(=O)c(Oc3ccccc3)c(C)oc2c1 | > 38 µM (inactive) |  | 
CCOC(=O)COc1ccc2c(c1)C(=O)CC1(CCCCC1)O2 | > 38 µM (inactive) |  | 
O=C(COc1c(Br)cc(Br)c2cccnc12)N1CCCCC1 | 6.33 µM |  | 
Brc1c(-c2ccc3c(c2)OCO3)nc2ncccn12 | 32.3 µM |  | 
Cc1nnc(NC(=O)c2ccc3ccccc3c2)o1 | 1.34 µM |  | 
COCCNC(=O)C[C@@H]1C[C@@H]2c3cc(NC(=O)Nc4ccc(C(F)(F)F)cc4)ccc3O[C@@H]2[C@@H](CO)O1 |  | 9.37% (inactive) | 
c1ccc(Nc2nc(-c3ccccn3)cs2)cc1 | > 38 µM (inactive) |  | 
NC(=O)COc1ccc2cc(-c3ccc(F)cc3)c(=O)oc2c1 |  |  | activity change, negative = inhibition ([2]; at 38 µM (top of the series)): -7.91% (inactive)
CCOC(=O)c1cc(-c2csc(COc3ccccc3)n2)on1 | > 38 µM (inactive) |  | 
C[C@H](CO)N1C[C@H](C)[C@@H](CN(C)C(=O)[C@H](C)c2ccccc2)OCc2ccccc2-c2ccccc2C1=O |  | 4.38% (inactive) | 
O=C(COc1cccc2ccccc12)Nc1nc2ccccc2[nH]1 | > 38 µM (inactive) |  | 
COc1ccccc1C#Cc1ccc([C@H]2[C@@H](CO)N(C(=O)C3CC3)[C@H]2C#N)cc1 | > 26 µM (inactive) | -16.4% (inactive) | 
C[C@H](C(=O)N(C)C[C@@H]1OCc2ccccc2-c2ccccc2C(=O)N([C@@H](C)CO)C[C@@H]1C)c1ccccc1 |  | -3.21% (inactive) | 
CNC[C@H]1OCCCC[C@H](C)Oc2ccc(NC(=O)CCCN(C)C)cc2C(=O)N([C@@H](C)CO)C[C@@H]1C |  | -0.478% (inactive) | 
O=C(C[C@H]1C=C[C@H](NC(=O)Nc2cc(F)ccc2F)[C@@H](CO)O1)NCc1ccc2c(c1)OCO2 |  | -6.29% (inactive) | 

Structure (SMILES) | AC90 [1] | activity change, negative = inhibition ([2]; at 26 µM (top of the series)) | also measured
O=C(C[C@@H]1C=C[C@@H](NC(=O)Nc2cc(F)ccc2F)[C@@H](CO)O1)NCc1ccc2c(c1)OCO2 |  |  | activity change, negative = inhibition ([2]; at 23.5 µM (top of the series)): 2.62% (inactive)
O=C(C[C@H]1C=C[C@@H](NC(=O)Nc2cc(F)ccc2F)[C@@H](CO)O1)NCc1ccc2c(c1)OCO2 |  | 4.07% (inactive) | 
O=C(NCc1cccs1)c1ccc(Br)o1 | > 38 µM (inactive) |  | 
O=C(C[C@@H]1C[C@@H]2c3cc(NC(=O)c4cccnc4)ccc3O[C@@H]2[C@H](CO)O1)NCC(F)(F)F |  | -0.328% (inactive) | 
CCOCCOC(=O)COc1ccc2c(-c3ccccc3)cc(=O)oc2c1 | > 38 µM (inactive) |  | 
O=C(OCCCCN1C(=O)c2ccccc2C1=O)c1ccc(Br)o1 |  |  | activity change, negative = inhibition ([2]; at 38 µM (top of the series)): -2.9% (inactive)
Cc1cccc(Cn2ccc(NC(=O)c3ccc4c(c3)OCO4)n2)c1 | 20 µM |  | 
CCCC(C)C(=O)Nc1ccc(Cl)cn1 (centres undefined) |  |  | activity change, negative = inhibition ([2]; at 38 µM (top of the series)): -14.4% (inactive)
C[C@H](C(=O)N(C)C[C@H]1OCc2ccccc2-c2ccccc2C(=O)N([C@@H](C)CO)C[C@@H]1C)c1ccccc1 |  | -9.24% (inactive) | 
O=C(C[C@@H]1C=C[C@H](NC(=O)Nc2cc(F)ccc2F)[C@H](CO)O1)NCc1ccc2c(c1)OCO2 |  |  | activity change, negative = inhibition ([2]; at 23.5 µM (top of the series)): -1.22% (inactive)
CNC[C@@H]1OCCCC[C@@H](C)Oc2ccc(NC(=O)CCCN(C)C)cc2C(=O)N([C@@H](C)CO)C[C@H]1C |  | 6.36% (inactive) | 
COCCNC(=O)C[C@H]1C[C@H]2c3cc(NC(=O)Nc4ccc(C(F)(F)F)cc4)ccc3O[C@H]2[C@@H](CO)O1 |  | 6.87% (inactive) | 
CC(=O)c1ccc(NC(=O)c2cc(CC(C)C)on2)cc1 |  |  | activity change, negative = inhibition ([2]; at 38 µM (top of the series)): -14.7% (inactive)
Cc1noc(C)c1NC(=O)Nc1ccc2c(c1)C(=O)N(C)[C@H]1CC[C@H](CC(=O)NCc3ccc(Cl)cc3)O[C@H]1CO2 |  |  | activity change, negative = inhibition ([2]; at 23.5 µM (top of the series)): -5.96% (inactive)
O=C(NC1CC2CCC1C2)C1COc2ccccc2O1 (centres undefined) | > 38 µM (inactive) |  | 
C[C@H](C(=O)N(C)C[C@@H]1OCc2ccccc2-c2ccccc2C(=O)N([C@@H](C)CO)C[C@H]1C)c1ccccc1 |  | 1.76% (inactive) | 
C[C@@H]1CN([C@H](C)CO)C(=O)c2ccccc2-c2ccccc2CO[C@H]1CN(C)C(=O)[C@H](C)c1ccccc1 |  | 3.43% (inactive) | 
C[C@H](C(=O)N(C)C[C@@H]1OCc2ccccc2-c2ccccc2C(=O)N([C@H](C)CO)C[C@@H]1C)c1ccccc1 |  | -7.59% (inactive) | 
C[C@H](C(=O)N(C)C[C@H]1OCc2ccccc2-c2ccccc2C(=O)N([C@H](C)CO)C[C@H]1C)c1ccccc1 |  | -2.72% (inactive) | 
C[C@H](CO)N1C[C@H](C)[C@H](CN(C)C(=O)[C@H](C)c2ccccc2)OCc2ccccc2-c2ccccc2C1=O |  | -5.31% (inactive) | 
COc1ccccc1C#Cc1ccc([C@@H]2[C@@H](C#N)N(C(=O)C3CC3)[C@@H]2CO)cc1 |  | -12.4% (inactive) | 

Structure (SMILES) | AC90 [1] | activity change, negative = inhibition ([2]; at 26 µM (top of the series)) | also measured
CCOC(=O)c1c(C)n(C)c2ccc(OC(C)C(=O)OC)cc12 (centres undefined) |  |  | activity change, negative = inhibition ([2]; at 38 µM (top of the series)): -6.52% (inactive)
COC(=O)COc1cccc(NC(=O)c2ccc(Cl)cc2)c1 | > 38 µM (inactive) |  | 
CCCOC(=O)c1ccc(NC(=O)c2ccc(Br)o2)cc1 |  |  | activity change, negative = inhibition ([2]; at 38 µM (top of the series)): -12.8% (inactive)
CCCCN(C/C=C/c1ccccc1OC)Cc1ccccc1 | > 38 µM (inactive) |  | 
NC1CCN(c2c(F)cc3c(=O)c(C(=O)O)cn(C4CC4)c3c2Cl)C1 (centres undefined) | 2.94 µM |  | 
O=C(OCc1ccc(Cl)c(Cl)c1)c1ccccn1 |  |  | activity change, negative = inhibition ([2]; at 38 µM (top of the series)): -7.55% (inactive)
COCCNC(=O)C[C@H]1C[C@@H]2c3cc(NC(=O)Nc4ccc(C(F)(F)F)cc4)ccc3O[C@@H]2[C@H](CO)O1 |  | -0.81% (inactive) | 
C[C@@H](C(=O)N(C)C[C@@H]1OCc2ccccc2-c2ccccc2C(=O)N([C@@H](C)CO)C[C@@H]1C)c1ccccc1 |  | 3.38% (inactive) | 
COc1ccccc1C#Cc1ccc([C@@H]2[C@@H](C#N)N(C(=O)C3CC3)[C@H]2CO)cc1 | > 26 µM (inactive) |  | 
C[C@@H]1CN([C@@H](C)CO)C(=O)c2ccccc2-c2ccccc2CO[C@H]1CN(C)C(=O)[C@H](C)c1ccccc1 |  |  | activity change, negative = inhibition ([2]; at 23.5 µM (top of the series)): 6.24% (inactive)
COCCNC(=O)C[C@H]1C[C@H]2c3cc(NC(=O)Nc4ccc(C(F)(F)F)cc4)ccc3O[C@H]2[C@H](CO)O1 |  | 5.95% (inactive) | 
O=C(C[C@H]1C[C@H]2c3cc(NC(=O)c4cccnc4)ccc3O[C@H]2[C@H](CO)O1)NCC(F)(F)F |  | 10.5% (inactive) | 
C[C@H](C(=O)N(C)C[C@H]1OCc2ccccc2-c2ccccc2C(=O)N([C@H](C)CO)C[C@@H]1C)c1ccccc1 |  | -6.85% (inactive) | 
COc1ccccc1C#Cc1ccc([C@@H]2[C@H](C#N)N(C(=O)C3CC3)[C@H]2CO)cc1 | > 23.5 µM (inactive) |  | 
C[C@@H]1CN([C@@H](C)CO)C(=O)c2ccccc2-c2ccccc2CO[C@@H]1CN(C)C(=O)[C@H](C)c1ccccc1 |  | 5.94% (inactive) | 
C[C@H](C(=O)N(C)C[C@H]1OCc2ccccc2-c2ccccc2C(=O)N([C@@H](C)CO)C[C@H]1C)c1ccccc1 |  | -0.472% (inactive) | 
O=C(C[C@H]1C=C[C@H](NC(=O)Nc2cc(F)ccc2F)[C@H](CO)O1)NCc1ccc2c(c1)OCO2 |  | 2.59% (inactive) | 
O=C(C[C@H]1C=C[C@@H](NC(=O)Nc2cc(F)ccc2F)[C@H](CO)O1)NCc1ccc2c(c1)OCO2 |  | -2.19% (inactive) | 
CCOC(=O)COc1ccc2c(=O)cc(-c3ccccc3)oc2c1 | > 38 µM (inactive) |  | 
COc1ccccc1C#Cc1ccc([C@H]2[C@@H](C#N)N(C(=O)C3CC3)[C@@H]2CO)cc1 |  | -31.8% (inactive) | 
COc1ccccc1C#Cc1ccc([C@H]2[C@H](C#N)N(C(=O)C3CC3)[C@H]2CO)cc1 | > 26 µM (inactive) |  | 
